Laboratory results from article PMC11672316, “Identification of ANXA1 as a Novel Upstream Negative Regulator of Notch1 Function in AML” (Advanced Science, 2024).
Ends that are not written are not given here. Peptide text beside a SMILES is read from it. * marks the point of attachment. Cbz = O=C(OCc1ccccc1)*

Assays:
Type in all cases: cell-based, human
[1] = test system: p15; assay: Western blotting of p15 after RO4929097 treatment; conditions: 24 h, Figure 4D
Method: (§1) Cells were lysed in a lysis buffer containing 0.5 mM EDTA, 20 mM HEPES and 2% SDS. Samples mixed with SDS-gel loading buffer were loaded onto SDS-PAGE gel and transferred onto polyvinylidene fluoride (PVDF) microporous membranes (Millipore). Membranes were blocked with 5% nonfat milk in TBST (20 mM Tris-HCl, 150 mM NaCl, 0.1% Tween-20 with pH 7.5) for 2 hours and incubated with primary antibodies (Table S6, Supporting Information) at 4°C overnight. The membranes were incubated with a secondary antibody (Table S6, Supporting Information) followed by detection in an imaging system (ChampChemi 910, SageCreation) using the ECL reagent solution (SageCreation).

[2] = test system: KG1a-shANXA1 cells; assay: Cell counting proliferation assay, KG1a-shANXA1; conditions: 24 h, Figure 4E, three independent experiments
Method: (§2) For the cell counting assay, transfected cell lines or parental cells were seeded in a cell culture plate at the same density and cultured with RPMI-1640 medium, which sometimes added drugs. The number of cells was counted by a cell counter (Countstar BioTech IC 1000, Countstar) after indicated time.

[3] = test system: HL60-shANXA1 cells; assay: Cell counting proliferation assay, HL60-shANXA1; conditions: 24 h, Figure 4E, three independent experiments
Method: as §2

[4] = test system: KG1a cells; assay: MTT assay, KG1a (FPR blocking or activation); conditions: Figure S14, three independent experiments
Method: (§3) For Methylthiazolyldiphenyl-tetrazolium bromide (MTT) assay, cells were seeded in a 96-well plate and incubated with drugs or peptides. At the indicated time point, each well was added with 10 μL MTT solution (5 mg mL^-1, Sigma-Aldrich) and then incubated at 37°C in 5% CO2 for 4 hours. The medium was replaced by DMSO with 150 μL to dissolve the formazan crystals.

[5] = test system: HL60 cells; assay: MTT assay, HL60 (FPR blocking or activation); conditions: Figure S14, three independent experiments
Method: as §3

[6] = test system: NICD; assay: Co-immunoprecipitation, NICD-bound ubiquitin; conditions: KG1a- and HL60- shANXA1 or shControl cells; MG132 0 or 6 h; Figure 3C
Method: For co-immunoprecipitation (Co-IP) assay, the cells were lysed with NP-40 lysis buffer (Beyotime) containing 1 mM PMSF for 30 min at 4°C. The total protein concentrations were measured using BCA protein assay kit (Solarbio) according to the instructions. The lysates were divided into several tubes and precleared by adding protein A/G-agarose (Santa Cruz) for 30 min at 4°C. The samples were centrifuged to remove the precipitation and incubated with Notch1 antibody or normal rabbit IgG (Table S6, Supporting Information) for 2 hours, and then incubated with protein A/G-agarose overnight. The complexes were washed with NP-40 lysis buffer four times before being eluted in SDS-gel loading buffer and detected by western blotting.

[7] = test system: NICD; assay: Western blotting of NICD after MG132 treatment; conditions: AML cells (KG1a and HL60)
Method: as §1

CC(C)(C(=O)NCC(F)(F)C(F)(F)F)C(=O)N[C@@H]1C(=O)Nc2ccccc2-c2ccccc21 [RO4929097]
p15 expression ([1]; HL60 with ANXA1 knockdown): inhibited the expression of p15 in KG1a and HL60 cells with ANXA1 knockdown | p15 expression ([1]; KG1a with ANXA1 knockdown): inhibited the expression of p15 in KG1a and HL60 cells with ANXA1 knockdown | cell proliferation [2]: promoting the proliferation of AML cells | cell proliferation [3]: promoting the proliferation of AML cells

Ac2-26: N-terminal ANXA1 peptide, FPR agonist (Ac-AMVSEFLKQAWFIENEEQEYVQTVK; UniProt P04083 2-26, looked up, fragment)
effect on proliferation [4]: neither the FPR antagonist nor the N‐terminal ANXA1 peptide Ac2‐26 affected the proliferation of AML cells | effect on proliferation [5]: neither the FPR antagonist nor the N‐terminal ANXA1 peptide Ac2‐26 affected the proliferation of AML cells

CC(C)C[C@@H](C=O)NC(=O)[C@H](CC(C)C)NC(=O)[C@H](CC(C)C)NC(=O)OCc1ccccc1 [MG132] (Cbz-Leu-Leu-Leu-aldehyde)
ubiquitin bound to NICD [6]: ubiquitin was bound to NICD significantly in the shControl cells after MG132 treatment rather than ANXA1 knockdown cells | NICD expression level ([7]; ANXA1 knockdown group): minimally affected the expression level of NICD in the ANXA1 knockdown group | NICD degradation ([7]; shControl, 3 h): significantly reversed the ANXA1‐induced NICD degradation after 3 h of treatment in the control group
